Target: Aurora B (Homo sapiens, UniProt Q96GD4)
Assay type: biochemical

Aurora B, sequence (Q96GD4 whole entry): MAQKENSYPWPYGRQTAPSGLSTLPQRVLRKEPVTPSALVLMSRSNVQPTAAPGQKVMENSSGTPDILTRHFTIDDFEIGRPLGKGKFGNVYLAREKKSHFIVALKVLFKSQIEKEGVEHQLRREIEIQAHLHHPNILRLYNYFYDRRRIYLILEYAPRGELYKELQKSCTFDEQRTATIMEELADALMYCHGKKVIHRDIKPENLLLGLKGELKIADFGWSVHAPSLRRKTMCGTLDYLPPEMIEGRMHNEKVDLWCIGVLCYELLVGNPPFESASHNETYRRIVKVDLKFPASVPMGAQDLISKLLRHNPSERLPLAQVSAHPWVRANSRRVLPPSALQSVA

- IC50: ~100 nM
Compound: O=C(/C=C/c1ccc2c(c1)OCO2)/C=C1/C(=O)Nc2ccccc21 [HOI-07, (E)-3-((E)-4-(benzo[d][1,3]dioxol-5-yl)-2-oxobut-3-en-1-ylidene)indolin-2-one]

— PMC3549034 (Cancer research, 2012)
